Source: US20230010299A1, “HETEROCYCLIC TRPML1 AGONISTS” (LIBRA THERAPEUTICS, INC., priority 2019, published 2023)

What was measured:
TRPML1 [1] = molecular target: T1, TRPML1 (Homo sapiens, UniProt Q9GZU1); assay: Cellular TRPML1 assay (FLIPR TETRA, GCaMP6f calcium read-out); assay type: cell-based; conditions: HEK T-REx/GCaMP6f/TRPML1 cells; Ca2+ response over 300 s, normalized to ML-SA1 50 μM; Ca2+ free or Optimem condition not given; read-out: Ec50 (Activity of TRPML1 agonists)
T1 construct: expressed in transfected cells
T1 sequence (Q9GZU1 whole entry): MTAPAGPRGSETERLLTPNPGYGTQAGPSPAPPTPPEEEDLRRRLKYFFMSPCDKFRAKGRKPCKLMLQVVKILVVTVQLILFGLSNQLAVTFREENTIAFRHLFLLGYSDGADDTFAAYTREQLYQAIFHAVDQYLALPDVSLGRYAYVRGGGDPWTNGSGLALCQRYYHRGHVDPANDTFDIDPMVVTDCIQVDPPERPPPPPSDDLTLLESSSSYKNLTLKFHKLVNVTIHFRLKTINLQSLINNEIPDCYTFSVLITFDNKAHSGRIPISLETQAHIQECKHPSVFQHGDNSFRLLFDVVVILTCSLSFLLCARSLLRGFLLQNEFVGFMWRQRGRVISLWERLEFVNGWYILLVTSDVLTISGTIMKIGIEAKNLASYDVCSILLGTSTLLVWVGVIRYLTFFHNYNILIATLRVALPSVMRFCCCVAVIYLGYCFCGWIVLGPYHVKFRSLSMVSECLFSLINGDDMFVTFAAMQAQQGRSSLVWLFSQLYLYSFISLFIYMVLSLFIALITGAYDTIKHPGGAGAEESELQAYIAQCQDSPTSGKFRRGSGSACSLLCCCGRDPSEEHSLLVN
Protocol: Buffers and reagents • PBS (D-PBS without calcium and magnesium; EuroClone) • Trypsin (Trypsin 0.05%, EDTA 0.02% in PBS; EuroClone) • DMSO (Sigma) • Ca^2+ free Tyrode's buffer: in-house solution (130 mM NaCl, 5 mM KCl, 1 mM MgCl2, 5 mM NaHCO3, 20 mM HEPES in water at pH 7.4; sterile filtered). • Opti-MEM (Gibco) • Agonist: ML-SA1 (Sigma); stock: 60 mM in DMSO, stored at −20° C. • Blocker: ML-SI3 (in house synthesis); stock: 20 mM in DMSO, stored at −20° C.
The final clone for the TRPML1 assay is HEK T-REx/GCaMP6f/TRPML1.
GCaMP6f is a genetically encoded calcium indicator that is stably expressed in this cell line and used as a fluorescent read-out.
Experiments are performed in 384 MTP format. Cells are seeded at 15000 cells/well either in 25 μl/well of growth medium or in 20 μl/well of Optimem+0.5% FBS without selection antibiotics. Twenty-four hours later, cells are assayed for the response to various compounds using the Ca^2+ sensitive GCaMP6f protein stably expressed in the cells as readout.
The experiment is performed in a 384-well format according to the following procedures for either Ca^2+ free or Optimem conditions: • Ca^2+ free condition (in absence of extracellular Ca^2+): • 24 h after seeding, pre-incubate the cells at room temperature for about 10′. • Then remove the culture medium and replace it with 20 μL of Ca^2+ free Tyrode's buffer. • Start the experiment at the FLIPR^TETRA by injecting 10 μL/w of 3× concentrated test compounds and controls in Ca^2+ free Tyrode's buffer. Monitor the kinetic response over a period of 300 seconds. • Final DMSO concentration: 0.5% • Optimem condition (in presence of extracellular Ca^2+): • 24 h after seeding, pre-incubate the cells at room temperature for about 10′. • Start the experiment at the FLIPR^TETRA by injecting 10 μL/w of 3× concentrated test compounds and controls in Ca^2+ free Tyrode's buffer. Monitor the kinetic response over a period of 300 seconds. • Final DMSO concentration: 0.5%
Data from FLIPR^TETRA measurements are analyzed with the Genedata Screener® software.
Stimulator controls (Col 2): injection of ML-SA1 EC100 (50 μM) in alternated wells positions
Neutral controls (Col 2): injection of 0 mM Ca^2+ free Tyrode's buffer in alternated wells positions.
Test wells (Col 3-22): test compounds dose response curve from either 100 μM with 1:2 dilution steps or from 50 μM with 1:3.16 dilution steps.

TRPML1 [2] = molecular target: T1, TRPML1; assay: TRPML1 automated patch-clamp (QPatch 16X); assay type: cell-based; conditions: HEK T-REx/GcaMP6f/TRPML1 cells, current with compound/current in vehicle, extracellular pH 4.6
Protocol: TRPML1—Automated Patch-Clamp
HEK T-REx/GcaMP6f/TRPML1 cells were cultured in DMEM High Glucose (Lonza BioWhittaker cat. BE12-604F/U1; 500 mL) supplemented with Fetal Bovine Serum TET-FREE (Euroclone cat. EC S0182L; 50 mL, Penicillin-Streptomycin (BioWhittaker, cat. DE17-602E; 5 mL of 100× Solution), G418 (Sigma, cat. G8168; 0.25 mg/ml) and Zeocyn (InvivoGen, cat. ant-zn-1; 50 μg/ml).
HEK T-REx/GcaMP6f/TRPML1 cells were seeded 48 or 72 hours before experiment, at a concentration of 8*10^6/4*10^6 cells onto a T225 flask. Just before the experiments, cells were washed twice with D-PBS w/o Ca^2+/Mg^2+ (Euroclone cat. ECB4004L) and detached from the flask with trypsin-EDTA (Sigma cat. T4174; diluted 1/10). Cells were then re-suspended in the suspension solution: 25 mL EX-CELL ACF CHO medium(Sigma cat. C5467); 0.625 mL HEPES (Sigma cat. H0887); 0.25 mL of 100× Penicillin/Streptomycin (Euroclone cat. ECB3001D), 0.1 mL of Soybean Trypsin Inhibitor 10 mg/mL (Sigma cat. T6522) and placed on the QPatch 16X.
Dilution from stock were prepared just before the experiments in the extracellular solution (0.25% final DMSO concentration). DMSO solution was obtained from AppliChem (cat. A3672)
Patch Clamp Solutions: • Intracellular solution (mM): 120 CsMeSO3, 4 NaCl, 2 MgCl2, 10 EGTA, 20 HEPES, 2 Mg-ATP (pH 7.2 with CsOH). • Extracellular solution (mM): 140 NaGluconate, 5 KCl, 1 MgCl2, 2 CaCl2), 10 Glucose, 10 MES (pH 4.6 with HCl).
Patch Clamp Analysis—QPatch 16X
For the voltage clamp experiments on TRPML1, data were sampled at 5 KHz. After establishment of the seal and the passage in the whole cell configuration, the cells were held at −20 mV and the TRPML1 current was evoked using the voltage protocol illustrated in FIG. 2, applied every 5 sec. (50 ms at −20 mV; 20 ms at −120 mV, 1000 ms ramp from −120 to […]; 20 ms at +40 mV, and back to −20 mV); in the absence (vehicle period, i.e. 0.25% DMSO) and in the presence of increasing concentrations (3) of the compound under investigation.
Agonists: For data collection, the Sophion proprietary software was used and the analysis was performed off-line using Excel and GraphPad Prism (V 8.00). Results are reported in Table 6, expressed as TRPML1 current fold increase evoked by the compound under investigation (i.e. current in the presence of the compound/current in vehicle).

| SMILES | EC50 (TRPML1 [1]) [µM] | Qpatch Assay TRPML1 agonism Current fold increase Mean ± SEM (n) (TRPML1 [2]; 0.3 μM compound) | Qpatch Assay TRPML1 agonism Current fold increase Mean ± SEM (n) (TRPML1 [2]; 3.0 μM compound) | Qpatch Assay TRPML1 agonism Current fold increase Mean ± SEM (n) (TRPML1 [2]; 30 μM compound) |
| --- | --- | --- | --- | --- |
| CN(C)S(=O)(=O)c1ccc(S(=O)(=O)NC2CCCCC2N2CCC(Oc3ccccc3)CC2)cc1 (single isomer, unassigned) [Example 63, N1,N1-dimethyl-N4-[2-(4-phenoxypiperidin-1-yl)cyclohexyl]benzene-1,4-disulfonamide] | 1.7 | 0.042 ± 0.153 (2) | 0.86 ± 0.60 (2) | 4.3 ± 0.9 (2) |
| CN(C)S(=O)(=O)c1ccc(S(=O)(=O)Nc2ccccc2N2CCC(Oc3ccccc3)CC2)cc1 [Example 24, N1,N1-dimethyl-N4-[2-(4-phenoxypiperidin-1-yl)phenyl]benzene-1,4-disulfonamide] | 2.1 | 4.6 ± 1.8 (4) | 168.8 ± 96.1 (4) | 687.7 (1) |
| CN(C)S(=O)(=O)c1ccc(S(=O)(=O)Nc2ccccc2N2CCC(OCc3ccccc3)CC2)cc1 [Example 25, N4-{2-[4-(benzyloxy)piperidin-1-yl]phenyl}-N1,N1-dimethylbenzene-1,4-disulfonamide] | 1.8 | 3.5 ± 1.8 (3) | 177.1 ± 38.2 (3) | 1013.8 (1) |
| COC1CCN(c2ccccc2NS(=O)(=O)c2ccc(S(=O)(=O)N(C)C)cc2)CC1 [Example 26, N4-[2-(4-methoxypiperidin-1-yl)phenyl]-N1,N1-dimethylbenzene-1,4-disulfonamide] | 4.5 | 0.46 ± 0.16 (3) | 41.4 ± 21.1 | 390 ± 158 (3) |
| COC(=O)N1CCN(c2ccccc2NS(=O)(=O)c2ccc(S(=O)(=O)N(C)C)cc2)CC1 [Example 52, methyl 4-{2-[4-(dimethylsulfamoyl)benzenesulfonamido]phenyl}piperazine-1-carboxylate] | 7.2 | 1.3 ± 1.0 (3) | 10.4 ± 3.8 (3) | 472.5 ± 267.9 (3) |
| CN(C)S(=O)(=O)c1ccc(S(=O)(=O)Nc2ccccc2N2CCN(C(=O)OCC(F)(F)F)CC2)cc1 [Example 53, 2,2,2-trifluoroethyl4-{2-[4-(dimethylsulfamoyl)benzenesulfonamido]phenyl}piperazine-1-carboxylate] | 3.6 | 1.9 ± 1.6 (3) | 88.3 ± 59.9 (3) | 257.4 ± 190.7 (3) |
| CCOC(=O)N1CCN(c2ccccc2NS(=O)(=O)c2ccc(S(=O)(=O)N(C)C)cc2)CC1 [Example 70, ethyl4-{2-[4-(dimethylsulfamoyl)benzenesulfonamido]phenyl}piperazine-1-carboxylate] | 3.2 | 0.5 ± 0.3 (3) | 22.5 ± 10.6 (3) | 656.7 ± 150.5 (3) |
| CN(C)S(=O)(=O)c1ccc(S(=O)(=O)Nc2ccccc2N2CCN(C(=O)c3ccccc3)CC2)cc1 [Example 73, N4-[2-(4-benzoylpiperazin-1-yl)phenyl]-N1,N1-dimethylbenzene-1,4-disulfonamide] | 6.4 | −0.070 | −0.31 | 11.3 |
| CN(C)S(=O)(=O)c1ccc(S(=O)(=O)NCc2ccccc2N2CCCCC2)cc1 [Example 74, N1,N1-dimethyl-N4-{[2-(piperidin-1-yl)phenyl]methyl}benzene-1,4-disulfonamide] | 3.2 | 4.3 ± 2.0 (6) | 356 ± 69.7 (6) | 639 + 241 (3) |
| CN(C)S(=O)(=O)c1ccc(S(=O)(=O)Nc2ccccc2C2CCN(C(=O)OC(C)(C)C)CC2)cc1 [Example 78, f-butyl 4-{2-[4-(dimethylsulfamoyl)benzenesulfonamido]phenyl} piperidine-1-carboxylate] | 6.9 | 0.68 ± 0.34 (3) | 16.5 ± 9.1 (3) | 166 ± 75.7 (3) |
| CCCN(C)C(=O)N1CCN(c2ccccc2NS(=O)(=O)c2ccc(S(=O)(=O)N(C)C)cc2)CC1 [Example 82, 4-{2-[4-(dimethylsulfamoyl)benzenesulfonamido]phenyl}-N-methyl-N-propylpiperazine-1-carboxamide] | 5.9 | 2.5 ± 1.3 (3) | 12.5 ± 8.6 (3) | 138 ± 55.7 (3) |
| Cc1ccc(S(=O)(=O)Nc2ccccc2N2CCN(C(=O)OC(C)(C)C)CC2)cc1 [Example 83, t-butyl 4-[2-(4-methylbenzenesulfonamido)phenyl]piperazine-1-carboxylate] | 1.8 | 70.2 ± 13.8 (4) | 125.0 ± 31.0 (4) | 140.3 ± 36.8 (4) |
| COC(=O)C1CCN(c2ccccc2NS(=O)(=O)c2ccc(S(=O)(=O)N(C)C)cc2)CC1 [Example 105, methyl 1-(2-((4-(N,N-dimethylsulfamoyl)phenyl)sulfonamido)phenyl)piperidine-4-carboxylate] | 18 | – | – | – |
| CN(C)S(=O)(=O)c1ccc(S(=O)(=O)Nc2ccccc2N2CCC(Oc3ccncc3)CC2)cc1 [Example 106, N1,N1-dimethyl-N4-(2-(4-(pyridin-4-yloxy)piperidin-1-yl)phenyl)benzene-1,4-disulfonamide] | 8.6 | – | – | – |
